Data set [1] concerns the target T1, MAO B (Homo sapiens, UniProt P27338).
T1 construct: purchased Sigma-Aldrich
T1 sequence (P27338 1-520): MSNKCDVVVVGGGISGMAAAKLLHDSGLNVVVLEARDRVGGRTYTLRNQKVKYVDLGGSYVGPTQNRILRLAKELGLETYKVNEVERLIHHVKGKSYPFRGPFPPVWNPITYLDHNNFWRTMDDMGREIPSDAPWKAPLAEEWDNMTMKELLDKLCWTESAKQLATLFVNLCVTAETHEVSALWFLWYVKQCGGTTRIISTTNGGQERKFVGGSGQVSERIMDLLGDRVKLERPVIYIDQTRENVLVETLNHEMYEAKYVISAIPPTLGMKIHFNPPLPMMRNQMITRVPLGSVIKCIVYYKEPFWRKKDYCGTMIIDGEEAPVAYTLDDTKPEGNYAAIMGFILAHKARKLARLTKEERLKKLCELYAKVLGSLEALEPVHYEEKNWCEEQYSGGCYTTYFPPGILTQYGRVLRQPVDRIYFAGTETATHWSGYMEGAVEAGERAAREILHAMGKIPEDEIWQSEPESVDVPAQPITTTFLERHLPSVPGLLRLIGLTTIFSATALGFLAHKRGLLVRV
Description: MAO B inhibition, discontinuous fluorimetric kynuramine assay. Format: biochemical. The following applies: for inhibition at 1 µM: 1 μM inhibitor, mean ± SD, n = 2, normalized to control. The protocol: MAO A and B inhibition capacities were investigated using a discontinuous fluorimetric assay (Meiring et al., [2013]) as described previously by using human recombinant membrane-bound MAO purchased from Sigma-Aldrich (Affini et al., [2018]). Briefly, remained enzyme activity with inhibitor, either 1 μM (one-point) or concentrations ranging from 0.0001 to 10 μM, was assessed in the presence of kynuramine [2 × KM, KM = 20 μM (MAO A), KM = 30 μM (MAO B)] in potassium phosphate buffer (pH 7.4). Reactions were started by addition of enzyme and stopped by manual addition of sodium hydroxide (2 N) after 20 min. Enzyme activity was determined by detection of 4-hydroxyquinoline (λEx = 320 nm, λEm = 405 nm). Data were analyzed using GraphPad PRISM 6. For one-point measurements data were calculated as percentage of control and expressed as mean ± standard deviation (%). […] Data were obtained from two (one-point measurements) or at least three (IC50 values) independent experiments, each performed in duplicates.

Data set [2] in a line: Total antioxidant capacity (TAOC), modified phosphomolybdenum method. Conditions: concentration providing 0.500 of absorbance at 695 nm; mean ± SD, n = 3. The protocol:
Volume of 0.4 mL of sample solution (50–1,000 μM) was mixed with 1.6 mL of reagent solution [0.6 M H2SO4, 28 mM Na3PO4, and 4 mM (NH4)2MoO4] and resulting mixtures were incubated at 95°C for 90 min. The cooled reaction mixtures were then centrifuged for 10 min (3,000 rpm). The absorbance of the supernatant solution was measured, 1 h after centrifugation, at 695 nm against reagent solution as blank. An increased absorbance in reading in both assays indicated increased antioxidant power, expressed as EC50 values (the sample concentration giving absorbance of 0.500 from the graph of absorbance at 700 nm or 695 nm against compound concentration) (Prieto et al., [1999]).

The nature of data set [3]: Oxygen radical absorbance capacity (ORAC) assay. The following applies: Trolox equivalents; mean ± SD, n = 3. Here is the method:
A modification of original protocol was used (Ou et al., [2001]). Stock solutions of fluorescein substrate (5 μM) and free radical generator AAPH (0.5 M) were prepared in 75 mM potassium phosphate buffer (pH = 7.4). Volume of 100 μL of sample solutions or Trolox in DMSO (20 μM) were mixed with 1,485 μL of buffer and 15 μL of fluorescein solution. The 30 min reaction at 37°C was initiated by adding 250 μL of AAPH solution. Fluorescence conditions were as follows: excitation and emission wavelengths 485 and 511 nm, respectively, slits 2 nm. The relative sample ORAC value was expressed as Trolox equivalents (TE).

In data set [4] the test system is six human solid tumor cell lines. The data set can be described thus: Antiproliferative activity, panel as a whole. Active and inactive are the words of the source; unless stated, no cut-off is given here. The arrangement: key: moderate activity (GI50 = 10–100 μM); good activity (GI50 = 1–10 μM); inactive (GI50 > 100 μM). In kind it is cell-based. Conditions: five cell lines of the six. Here is the method: The in vitro antiproliferative activity of investigated compounds was evaluated against six human solid tumor cell lines: A549 (non-small cell lung), HBL-100, (breast), HeLa (cervix), SW1573 (non-small cell lung), as drug sensitive lines, T-47D (breast) and WiDr (colon) as drug resistant lines. These cell lines were a kind gift from Prof. G. J. Peters (VU Medical Center, Amsterdam, The Netherlands). For selectivity studies, the human fibroblasts BJ-hTert cell line was used, which was obtained from Dr. R. Freire (HUC, Tenerife, Canary Islands). Cells were kept in culture medium under standard conditions: RPMI 1640 medium, fetal bovine serum (5%), glutamine (2 mM), penicillin G (100 units/mL) and streptomycin (0.1 mg/mL). Antiproliferative tests were conducted as described earlier (Skehan et al., [1990]; Miranda et al., [2006]). Tested compounds were dissolved in DMSO at an initial concentration of 40 mM. DMSO was used as negative control (0.25% v/v). Antiproliferative activity of the compounds was expressed as GI50, which is the concentration of the compound that inhibits 50% of the culture growth.

Compound `C(=NNc1nc(-c2ccccc2)c[se]1)c1ccccc1` [Compound 1, 2-(2-benzylidenehydrazinyl)-4-phenyl-1,3-selenazole] gave a melting point of 178 to 180 °C. The compound further yielded an inhibition at 1 µM in data set [1] of 89.4 ± 1.5%. This compound also registered an IC50 in data set [1] (mean, 95% CI, at least three experiments) of 0.252 µM. This compound also came in with a 50% effective concentration (EC50) in data set [2] of 648 ± 55 µM. In addition, the ORAC in data set [3] came to 0.75 ± 0.05 TE.

`COc1ccc(-c2c[se]c(NN=Cc3ccccc3)n2)cc1` [Compound 1-OMe, 2-(2-benzylidenehydrazinyl)-4-(4-methoxyphenyl)-1,3-selenazole] gave a melting point of 180 to 182 °C. The inhibition at 1 µM in data set [1] came to 33 ± 11.6%. In data set [2], this compound showed an EC50 of 548 ± 53 µM. For the same compound, the ORAC in data set [3] turned out to be 0.74 ± 0.06 TE. The “antiproliferative activity class against five cell lines” value in data set [4] is “inactive”.

`O=[N+]([O-])c1ccccc1C=NNc1nc(-c2ccccc2)c[se]1` [Compound 2, 2-(2-(2-nitrobenzylidene)hydrazinyl)-4-phenyl-1,3-selenazole] registered a melting point of 183 to 184 °C. The compound also yielded an inhibition at 1 µM in data set [1] of 64.8 ± 6.1%. In data set [2], this compound showed an EC50 of 357 ± 41 µM. The ORAC in data set [3] turned out to be 0.82 ± 0.07 TE.

Consider `Cc1ccc(-c2c[se]c(NN=Cc3ccccc3[N+](=O)[O-])n2)cc1` [Compound 2-Me, 2-(2-(2-nitrobenzylidene)hydrazinyl)-4-(p-tolyl)-1,3-selenazole], for which the melting point is 170 to 171 °C. In data set [1], this compound yielded an inhibition at 1 µM of 22.1 ± 8.7%. This compound also yielded an EC50 in data set [2] of 416 ± 45 µM. Also, the ORAC in data set [3] turned out to be 0.77 ± 0.05 TE.

`COc1ccc(-c2c[se]c(NN=Cc3ccccc3[N+](=O)[O-])n2)cc1` [Compound 2-OMe, 4-(4-methoxyphenyl)-2-(2-(2-nitrobenzylidene)hydrazinyl)-1,3-selenazole]: the melting point is 165 to 166 °C. For the same compound, at 1 µM the inhibition in data set [1] was 35.9 ± 11.2%. This compound gave a half-maximal effective concentration (EC50) in data set [2] of 433 ± 39 µM. In addition, the ORAC in data set [3] came to 0.82 ± 0.07 TE.

As to `O=[N+]([O-])c1cccc(C=NNc2nc(-c3ccccc3)c[se]2)c1` [Compound 3, 2-(2-(3-nitrobenzylidene)hydrazinyl)-4-phenyl-1,3-selenazole], the melting point was in the range of 216 to 218 °C. Further, at 1 µM the inhibition in data set [1] was 57.5 ± 11.4%. The compound further returned a 50% effective concentration (EC50) in data set [2] of 325 ± 38 µM. The ORAC in data set [3] was found to be 0.90 ± 0.06 TE.

As to `Cc1ccc(-c2c[se]c(NN=Cc3cccc([N+](=O)[O-])c3)n2)cc1` [Compound 3-Me, 2-(2-(3-nitrobenzylidene)hydrazinyl)-4-(p-tolyl)-1,3-selenazole], the melting point is 203 to 206 °C. This compound gave an inhibition at 1 µM in data set [1] of 7.4 ± 27%. The compound further showed a concentration giving a half-maximal response (EC50) in data set [2] of 571 ± 45 µM. Besides, the ORAC in data set [3] amounted to 0.83 ± 0.05 TE.

Take `COc1ccc(-c2c[se]c(NN=Cc3cccc([N+](=O)[O-])c3)n2)cc1` [Compound 3-OMe, 4-(4-methoxyphenyl)-2-(2-(3-nitrobenzylidene)hydrazinyl)-1,3-selenazole]: the melting point was in the range of 201 to 203 °C. The same compound came in with an inhibition at 1 µM in data set [1] of 23.8 ± 7.7%. This compound showed an EC50 in data set [2] of 632 ± 50 µM. In data set [3], the ORAC turned out to be 0.86 ± 0.07 TE.

Broadly, the inhibition is the drop in the measured response relative to a control, in per cent. Usually IC50 stands for the concentration at which inhibition is half-maximal. By EC50 is commonly meant the concentration at which the effect is half-maximal. As a reminder, the melting point is the temperature of the solid-liquid transition.

These data come from article PMC6037691, “Selenazolyl-hydrazones as Novel Selective MAO Inhibitors With Antiproliferative and Antioxidant Activities: Experimental and In-silico Studies” (Frontiers in Chemistry, 2018).
